In patent US9023837B2, “Androgen induced oxidative stress inhibitors” (Colby Pharmaceutical Company, priority 2010, dated 2015):
Values joined by “and” are separate entries in the source; they are usually repeats but may differ in a detail not shown here. Equal entries are not always repeated. “Also recorded” adds a separate entry of the source.

How the values were obtained:
LNCaP cells [1] = assay: DCF dye oxidation assay, ROS in LNCaP cells; assay type: cell-based, human
Excerpt: Described herein are tests for the effect of these three compounds on the androgen-induced ROS production in androgen-dependent LNCaP cells using the DCF dye oxidation assay (see the complete proposal). All data were normalized to the DCF dye fluorescence of control untreated LNCaP cells and expressed as percent of control.
(§1) Culture conditions for LNCaP androgen response studies included use of cells passage 40-90, hormone depleted media containing 4% charcoal-stripped FBS plus 1% non-stripped FBS (F1C4), and synthetic androgen R1881 (methyltrienolone; NEN, Boston, Mass.) at 1 nM for maximal induction of JunD and ROS as described before (17,19,20). For AR-JunD interaction studies in AR-transfected Hep3B cells, R1881 was used at 2 nM in F1C4 medium to maximally induce the AR.
(§2) Graded concentrations of each of the 8-10 designed peptides identified herein are further tested for their ability to inhibit growth of androgen-dependent LNCaP and LAPC-4 cells using a DNA fluorescence assay and androgen-induced ROS using DCFH dye oxidation assay.

[2] = biological target: T1, Androgen Receptor Ligand Binding Domain (AR-LBD) (Rattus norvegicus, UniProt P15207); assay: fluorescence polarization assay for AR-LBD binding; settings: bicalutamide positive control
T1 sequence (P15207 651-882 limits assumed): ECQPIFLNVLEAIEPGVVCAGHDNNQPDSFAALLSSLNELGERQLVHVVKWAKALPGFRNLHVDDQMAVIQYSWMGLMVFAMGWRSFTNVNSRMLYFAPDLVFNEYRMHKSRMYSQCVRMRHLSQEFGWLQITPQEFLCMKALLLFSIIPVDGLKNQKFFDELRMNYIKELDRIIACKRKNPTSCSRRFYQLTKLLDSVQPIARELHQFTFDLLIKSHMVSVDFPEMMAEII
Excerpt: Binding of bicalutamide with AR-LBD was used as a positive control.
Bicalutamide is used as a positive control.

LNCaP cells [3] = assay: growth inhibition of LNCaP cells; assay type: cell-based, human; design: concentration range of cell growth inhibition: unit not given here; settings: presence and absence of R1881
Protocol: as §1, §2

human CaP cells = assay: androgen-induced ROS production in human CaP cells; assay type: cell-based; settings: pretreatment
Excerpt: (§3) Described herein are molecules, such as for example, N,N′-butadienyl-butanediamine inhibitor of APAO or one of its pro-drugs or analogs, as shown in the figures disclosed herein in this application. […] SSAT promoter sequence, however, contains no AR-binding element (ARE).

[4] = system: TRansgenic Adenocarcinoma in Mouse Prostate (TRAMP) animals; assay: TRAMP mouse model of prostate cancer; assay type: in vivo
Excerpt: as §3

AR-JunD immunocomplex = AR-JunD immunocomplex (Homo sapiens, UniProt P10275, T878A); settings: IP:JunD/WB:AR, 1 nM R1881, 72 h, normalized to β-actin
Sequence of AR-JunD immunocomplex (P10275 whole entry T878A): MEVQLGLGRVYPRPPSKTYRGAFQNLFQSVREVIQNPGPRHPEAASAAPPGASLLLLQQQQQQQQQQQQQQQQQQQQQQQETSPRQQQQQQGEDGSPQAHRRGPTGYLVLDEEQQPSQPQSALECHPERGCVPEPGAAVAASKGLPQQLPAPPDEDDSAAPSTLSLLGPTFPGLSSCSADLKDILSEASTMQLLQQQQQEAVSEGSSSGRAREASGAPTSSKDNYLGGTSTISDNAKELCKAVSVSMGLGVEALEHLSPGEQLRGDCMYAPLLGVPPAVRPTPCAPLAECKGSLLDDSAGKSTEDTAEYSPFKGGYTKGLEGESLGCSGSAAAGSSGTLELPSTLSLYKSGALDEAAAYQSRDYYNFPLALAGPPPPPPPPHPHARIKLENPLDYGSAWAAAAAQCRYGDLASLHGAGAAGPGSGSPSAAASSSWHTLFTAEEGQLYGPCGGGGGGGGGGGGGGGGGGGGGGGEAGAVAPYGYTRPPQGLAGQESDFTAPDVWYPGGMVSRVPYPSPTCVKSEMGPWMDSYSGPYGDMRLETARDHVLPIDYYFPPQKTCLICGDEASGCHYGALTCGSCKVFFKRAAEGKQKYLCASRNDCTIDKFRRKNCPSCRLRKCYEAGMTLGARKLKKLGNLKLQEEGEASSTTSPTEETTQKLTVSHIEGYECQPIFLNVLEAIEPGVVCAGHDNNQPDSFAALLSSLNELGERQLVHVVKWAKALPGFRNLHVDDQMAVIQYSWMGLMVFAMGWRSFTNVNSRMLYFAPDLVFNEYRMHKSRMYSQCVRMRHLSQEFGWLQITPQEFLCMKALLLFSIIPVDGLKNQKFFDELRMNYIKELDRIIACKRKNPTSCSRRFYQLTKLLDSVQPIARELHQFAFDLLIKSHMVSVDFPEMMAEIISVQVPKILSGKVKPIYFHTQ
Sequence of AR-JunD immunocomplex (P17535 whole entry partner): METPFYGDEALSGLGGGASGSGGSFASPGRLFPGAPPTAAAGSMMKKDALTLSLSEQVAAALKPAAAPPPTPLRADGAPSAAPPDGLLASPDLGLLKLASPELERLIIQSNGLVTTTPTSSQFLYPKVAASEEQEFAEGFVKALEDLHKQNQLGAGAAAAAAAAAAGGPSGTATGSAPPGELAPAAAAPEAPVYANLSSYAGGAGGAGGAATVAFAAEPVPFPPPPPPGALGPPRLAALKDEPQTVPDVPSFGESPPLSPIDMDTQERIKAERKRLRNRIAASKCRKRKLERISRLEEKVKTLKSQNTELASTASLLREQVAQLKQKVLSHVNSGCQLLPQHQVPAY
Protocol: For whole cell lysates, LNCaP cells were lysed using modified RIPA buffer containing complete protease inhibitors (Roche Applied Sciences, Indianapolis, Ind.). Nuclear and cytoplasmic fractions were prepared and checked for purity using NE-PER Nuclear and Cytoplasmic extraction reagents (Thermo Scientific, Pierce Biotechnology, Rockford, Ill.) following manufacturer-supplied protocols. For immunoprecipitation, lysates were pre-cleared by incubation with 50% Protein A-agarose slurry (Pierce, Rockford, Ill.). Six g of AR antibody and 500 μl pre-cleared lysate (500 μg total protein) were mixed and rocked overnight at 4° C. The immunocomplex was captured with 100 μl of 50% protein A-agarose slurry, then analyzed by western blotting using JunD antibody. The same immunoprecipitation procedure was repeated for capturing the immunocomplex using JunD antibody and western blotting using AR antibody. Proper controls with IgG and protein A-agarose were run in parallel.
To specifically investigate the effect of androgen, LNCaP cell lysates were prepared after incubation with 1 nM R1881 for 72 h and analyzed for co-immunoprecipitation of AR and JunD.

SSAT promoter = SSAT promoter luciferase reporter in LNCaP cells; assay type: cell-based, human; settings: 1 nM R1881, 72 h
Protocol: The full length (FL) SSAT promoter sequence, kindly provided by Dr. Robert Casero (Johns Hopkins University, Baltimore, Md.), was amplified and cloned into pGL4-basic vector (Promega) with a firefly luciferase reporter gene. This vector, pGL4-SSAT-luc, was transiently transfected into our published (20) JunD-silenced (siJunD) and vector control LNCaP cell lines. Briefly, 5×10^5 siJunD or vector control LNCaP cells were seeded, then transfected one day later with […] pGL4-SSAT-luc DNA construct using Lipofectamine2000 (Invitrogen). After transfection, cells were treated with 1 nM R1881 or left untreated for 72 h, then lysed. Luciferase activity was measured in cell lysates by a luciferase assay system kit (Promega) following the manufacturer-supplied protocol.
The effect of AR activation by androgen on transcriptional activity of full length SSAT promoter and the necessity of JunD for such effect was studied in LNCaP cells stably transfected with either junD silenced (siJunD) or control vector that were then transiently transfected with a full length SSAT promoter-firefly luciferase reporter vector (FLSSAT-luc) followed by androgen treatment (FIGS. 4A,B). Androgen treatment (1 nM R1881) caused a significant>16-fold increase in SSAT promoter activity in vector control LNCaP cells (Control) compared to corresponding untreated cells (FIG. 4A, P=0.03). […]

SSAT mRNA = SSAT mRNA by qRT-PCR in LNCaP cells; assay type: cell-based, human
Protocol: Quantitative RT-PCR analysis of SSAT mRNA levels are performed.
The effect of AR activation by androgen on transcriptional activity of full length SSAT promoter and the necessity of JunD for such effect was studied in LNCaP cells stably transfected with either junD silenced (siJunD) or control vector that were then transiently transfected with a full length SSAT promoter-firefly luciferase reporter vector (FLSSAT-luc) followed by androgen treatment (FIGS. 4A,B). Androgen treatment (1 nM R1881) caused a significant>16-fold increase in SSAT promoter activity in vector control LNCaP cells (Control) compared to corresponding untreated cells (FIG. 4A, P=0.03). […] There is an androgen-induced increase in SSAT mRNA (˜10-fold) in siJunD cells, but this increase is much less than that observed in vector control cells (˜25-fold).

JunD-AR complex = JunD-AR complex (Homo sapiens, UniProt P10275); settings: Hep3B, 2 nM R1881, 48 h
Sequence of JunD-AR complex (P10275 whole entry): as the sequence (P10275 whole entry T878A) above, with A878T counted along it
Sequence of JunD-AR complex (P17535 whole entry partner): as the sequence (P17535 whole entry partner) above
Protocol: The two vectors were co-transfected into Hep3B liver carcinoma cells with no AR background.
5×10^5 Hep3B cells were seeded, then one day later co-transfected with 3 g each of Gluc1-AR and JunD-Gluc2 constructs, or transfected with Gluc1-AR or JunD-Gluc2 alone as negative controls using Lipofectamine 2000 reagent (Invitrogen), following the manufacturer-supplied protocol. Two to three hours after transfection, cells were washed and refed DMEM without serum and treated with 2 nM R1881 for 48 h prior to collecting cell lysates. Corresponding untreated cells were used as negative controls.
Gaussia luciferase activity was measured in 25 μl of Hep3B cell lysates from R1881-treated or untreated control cells using a Gaussia luciferase assay kit from New England Biolabs (Ipswich, Mass.), following the manufacturer-supplied protocol.

For NN(CC(=O)O)CC(=O)O, the “reduction of ROS levels in cells not treated with R1881” value (LNCaP cells [1]; LNCaP without R1881) was “weak activity in reducing ROS levels”, the “AR-LBD binding / anti-androgenic properties” value [2] was “no AR-LBD binding property; also recorded: no anti-androgenic properties” and the “concentration of growth inhibition” value (LNCaP cells [3]) was “sub-micromolar”.
For O=C(O)CN(CC(=O)O)N1C(=O)c2ccccc2C1=O [2,2′-(1,3-dioxoisoindolin-2-ylazanediyl)diacetic acid], the “AR-LBD binding / anti-androgenic properties” value [2] was “no AR-LBD binding property; also recorded: no anti-androgenic properties” and the “concentration of growth inhibition” value (LNCaP cells [3]) was “sub-micromolar”.
For C=C=CCNCCCCNCC=C=C [N,N′-butadienyl-butanediamine], the “androgen-induced ROS production” value (human CaP cells) was “completely blocks”, the CaP progression [4] was “significantly prevents” and the “oxidative stress in the prostate” value [4] was “markedly reduces”.
In the case of C[C@]1(O)CC[C@H]2[C@@H]3CCC4=CC(=O)CCC4=C3C=C[C@@]21C [R1881, methyltrienolone], the “increase of AR-JunD immunocomplex in nuclear fraction” value (AR-JunD immunocomplex) is reported as “approximately 3 fold”, the “increase in SSAT promoter activity” value (SSAT promoter; siJunD LNCaP) is reported as “small increase” and the “increase in SSAT promoter activity” value (SSAT promoter; vector control LNCaP) is reported as over 16 fold. For the same molecule, the “increase in SSAT mRNA (treated/untreated)” value (SSAT mRNA; JunD silenced (siJunD) LNCaP cells) was about 10 fold, the “increase in SSAT mRNA (treated/untreated)” value (SSAT mRNA; vector control LNCaP cells) was ~25 fold and > 25 fold and the “increase in reconstituted Gaussia luciferase activity versus untreated cells” value (JunD-AR complex) was ~10 fold and > 5 fold.
With COC(=O)CN(N)CC(=O)OC [dimethyl 2,2′-(hydrazine-1,1-diyl)diacetate] the melting point was 166 °C, the “effect on ROS levels under any condition” value (LNCaP cells [1]; LNCaP with or without R1881) was “no effect on the ROS levels” and the “AR-LBD binding / anti-androgenic properties” value [2] was “interaction with the AR-LBD that is comparable with that of bicalutamide”. The “concentration range of cell growth inhibition” value (LNCaP cells [3]) was 1-10.
